{
  "source": "paper PMC7984292",
  "about": "(Chemmedchem, 2020)",
  "origin": "cited, not measured here",
  "key": {"[1]": {"experiment": "not given", "remark": "listed apart in the source"}, "hDAT": {"biological_target": "hDAT (Homo sapiens, UniProt Q01959)", "sequence (Q01959 whole entry)": "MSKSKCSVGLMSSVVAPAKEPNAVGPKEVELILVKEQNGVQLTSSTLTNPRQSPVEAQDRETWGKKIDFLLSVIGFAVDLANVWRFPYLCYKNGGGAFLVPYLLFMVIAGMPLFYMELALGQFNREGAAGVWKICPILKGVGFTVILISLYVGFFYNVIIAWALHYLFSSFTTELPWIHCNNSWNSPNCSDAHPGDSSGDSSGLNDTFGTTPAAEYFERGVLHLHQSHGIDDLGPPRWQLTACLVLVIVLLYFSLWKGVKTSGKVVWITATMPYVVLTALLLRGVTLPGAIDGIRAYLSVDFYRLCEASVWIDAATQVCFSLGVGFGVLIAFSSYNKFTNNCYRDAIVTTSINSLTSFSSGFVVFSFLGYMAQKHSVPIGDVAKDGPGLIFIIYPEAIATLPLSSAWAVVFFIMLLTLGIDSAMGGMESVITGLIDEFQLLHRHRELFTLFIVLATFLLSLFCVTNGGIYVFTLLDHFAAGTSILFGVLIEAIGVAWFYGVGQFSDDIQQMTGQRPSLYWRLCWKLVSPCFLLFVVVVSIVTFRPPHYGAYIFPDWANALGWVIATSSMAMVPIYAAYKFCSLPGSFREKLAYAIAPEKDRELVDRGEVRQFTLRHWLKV", "settings": "read-out: IC50 hDAT; oxo isomers; taken from reference"}},
  "note": "“And” between values parts separate entries of the source, which are not always exact repeats. Equal values may be shown once.",
  "data": [
    {"smiles": "O=C(O)CN(CCN(CC(=O)O)Cc1ccccc1O)Cc1ccccc1O", "note": "[HBED]", "values": [
      {"measurement": "log K GaL (stability constant for the Ga3+ complex)", "result": 38.51}
    ]},
    {"smiles": "CN1[C@H]2CC[C@@H]1[C@@H](CN(CC[S-])CC[N-]CC[S-])[C@@H](c1ccc(Cl)cc1)C2.[O]=[99Tc+4]", "note": "[TRODAT‐1 6]", "values": [
      {"measurement": "log P", "setting": "[1]; value in parentheses = log P, literature value", "result": "(0.29±0.04) ^[29]"},
      {"measurement": "IC50", "setting": "hDAT", "result": "8.42 nM and 13.9 nM"}
    ]},
    {"smiles": "COC(=O)[C@H]1[C@@H](OC(=O)c2ccccc2)C[C@@H]2CC[C@H]1N2C", "note": "[cocaine 1, cocaine]", "values": [
      {"measurement": "log D 7.4", "setting": "[1]; pH 7.4", "result": "1.31±0.01 ^[22]"}
    ]}
  ]
}
